According to US11091482B2, “Isoxazolyl-carbonyloxy azabicyclo[3.2.1]octanyl compounds as FXR activators” (ARDELYX, INC., priority 2016, dated 2021):
Read-outs that look alike come from different tables or passages of the source. Values belong to the compound of their own block, whether it stands above or below them.

Experiments:
[1] = target: human Farnesoid X receptor ligand-binding domain/Gal4 DNA binding domain chimera (Homo sapiens (Human), UniProt Q96RI1); experiment: Cell-based FXR beta-lactamase reporter assay (FXR-UAS-bla HEK 293T cells); conditions: for % Efficacy: extent of activation relative to GW4064
Chain of human Farnesoid X receptor ligand-binding domain/Gal4 DNA binding domain chimera (Q96RI1 262-486, change not shown): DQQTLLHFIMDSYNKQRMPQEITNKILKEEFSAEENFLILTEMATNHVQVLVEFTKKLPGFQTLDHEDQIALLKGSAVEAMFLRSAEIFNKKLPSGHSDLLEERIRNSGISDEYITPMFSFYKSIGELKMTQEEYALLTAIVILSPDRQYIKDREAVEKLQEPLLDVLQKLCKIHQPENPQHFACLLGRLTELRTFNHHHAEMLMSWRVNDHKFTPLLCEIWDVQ
In short: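 Stable FXR-UAS-bla HEK 293T cells in phenol red-free DMEM with 2% charcoal-stripped FBS were exposed to 3-fold serial dilutions of compound. Beta-lactamase reporter activity was read by CCF4 FRET loss, exciting at 409 nm with blue emission at 447 nm. The FRET change versus concentration was fit to a 3-parameter logistic equation.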

[2] = test system: C57BL/6 male mice fed a Western diet; experiment: Western diet study; assay type: in vivo, C57BL/6 mice
Description: (§1) Six-week-old C57BL/6 male mice were fed a Western diet (WD) (62% fat/0.2% cholesterol). […] An additional control group (lean) was fed a standard rodent chow throughout the study. Body weight measurements and serum samples (tail bleed) were taken weekly. After 6 weeks of treatment, all animals were sacrificed and hepatosteatosis-related endpoints and other liver markers were measured.
(§2) Total RNA from mouse tissues was isolated and used for library preparation.

[3] = Western diet study; assay type: in vivo, C57BL/6 mice; conditions: male, C57BL/6, mouse, serum; 30 mg/kg q.d., after 2 weeks of treatment, 2 hours after the last dose; read-out: serum FXR agonist concentration
Description: as §1, §2

[4] = test system: fibroblast growth factor 19 (FGF19) secretion in human ileum; experiment: Human ileum APECCS (FGF19 secretion); assay type: cell-based; conditions: for EC50: Fibroblast; for Activity, %: relative to GW4064
[5] = test system: FXR target genes; experiment: Single-dose FXR target gene expression in mice fed a standard diet; assay type: in vivo, C57BL/6 mice; conditions: single dose 30 mg/kg
Description: as §2

[6] = target: ligand binding domain of human FXR (Homo sapiens (Human), UniProt Q96RI1); experiment: FXR ligand binding assay (LanthaScreen FRET); set-up: Activity, %: concentration or dose not given beside the values; conditions: for FXR pEC50 / % Efficacy: FXR ligand binding assay; for FXR pEC50: -log EC50; for % Efficacy: extent of activation relative to GW4064;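 as to all read-outs here: TR-FRET coactivator recruitment: ligand-induced binding of fluorescein-labelled SRC2-2 peptide to GST-tagged FXR LBD detected via Tb anti-GST antibody, serial compound dilutions, 3-parameter logistic fit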
Chain of ligand binding domain of human FXR (Q96RI1 262-486): as the sequence (Q96RI1 262-486, change not shown) above

[7] = Western diet, 6 weeks of treatment
[8] = Western diet, 6 weeks, I-2 30 mg/kg q.d. or b.i.d., Px-102 30 mg/kg q.d., FGF15-AAV single IV dose
[9] = cellular FXR beta-lactamase reporter assay, -log EC50
[10] = cellular FXR beta-lactamase reporter assay

Activity, % ([1]; Human FXR Cell (Gal4), relative to GW4064): 108% | EC50 ([1]; Human FXR Cell (Gal4), read-out: pEC50 (converted)): 0.158 µM | concentration at 2 h [3]: 475 ng/mL | Activity, % ([6]; Human FXR Binding (FRET), relative to GW4064): 90 ± 15% | EC50 ([6]; Human FXR Binding (FRET), value ± spread, read-out: pEC50 (converted)): 0.01 µM
SMILES: O=C(O)c1ccc([C@H]2C[C@@H]2c2ccc(OCc3c(-c4c(Cl)cccc4Cl)noc3C3CC3)cc2Cl)cc1 [Px-102]
body weight [2, 7]: did not affect | liver weight [2, 7]: did not affect | liver cholesterol [2, 8]: normalized | liver triglycerides [2, 8]: normalized | macrovesicular steatosis [2, 8]: reduced | serum cholesterol [2, 8]: reduced | Cyp7a1 gene expression ([2]; liver, Western diet): downregulated | serum FGF15 concentration ([2]; mice fed a WD): further increased | EC50 [4]: 0.331 µM | Activity, % [4]: 96.5 ± 25% | expression of selected FXR target genes in the liver [5]: activated | expression of FXR target genes, including FGF15, in the ileum ([5]; 6 h after dosing): activated

SMILES: CC[C@H]1[C@@H](O)[C@@H]2[C@H](CC[C@]3(C)[C@@H]([C@H](C)CCC(=O)O)CC[C@@H]23)[C@@]2(C)CC[C@@H](O)C[C@@H]12 [OCA, Obeticholic acid]
EC50 [4]: 0.501 µM | Activity, % [4]: 82.6 ± 19%

SMILES: CC(C)c1onc(-c2c(Cl)cccc2Cl)c1COc1ccc(/C=C/c2cccc(C(=O)O)c2)c(Cl)c1 [GW4064]
EC50 [4]: 0.316 µM | Activity, % [4]: 100 ± 0%

SMILES: COc1cc(N2[C@@H]3CC[C@H]2C[C@@H](OC(=O)c2c(-c4c(Cl)cccc4Cl)noc2C2CC2)C3)ccc1C(=O)O [Compound I-39, 4-[(1R,3R,5S)-3-[5-cyclopropyl-3-(2,6-dichlorophenyl)-1,2-oxazole-4-carbonyloxy]-8-azabicyclo[3.2.1]octan-8-yl]-2-methoxybenzoic acid]
Emax ([1]; HEK-293T, read-out: % Efficacy): 114% | EC50 ([1]; cellular FXR beta-lactamase reporter assay, -log EC50, read-out: FXR pEC50 (converted)): 0.1 µM | FXR pEC50 [6]: 6.8 | Emax ([6]; read-out: % Efficacy): 64%

FXR pEC50 [1, 9]: 6.4 | % Efficacy [1, 10]: 86% | FXR pEC50 [6]: 7.4 | % Efficacy [6]: 34%
SMILES: O=C(Cc1c(-c2c(Cl)cccc2Cl)noc1C1CC1)O[C@H]1C[C@H]2CC[C@@H](C1)N2c1nc2c(F)cc(C(=O)O)cc2s1 [Compound I-32, 2-[(1R,3R,5S)-3-({2-[5-cyclopropyl-3-(2,6-dichlorophenyl)-1,2-oxazol-4-yl]acetyl}oxy)-8-azabicyclo[3.2.1]octan-8-yl]-4-fluoro-1,3-benzothiazole-6-carboxylic Acid]

FXR pEC50 [1, 9]: 8.6 | % Efficacy [1, 10]: 130% | FXR pEC50 [6]: 8.2 | % Efficacy [6]: 124%
SMILES: O=C(NS(=O)(=O)C1CC1)c1ccc(N2[C@@H]3CC[C@H]2C[C@H](OC(=O)c2c(-c4c(Cl)cccc4Cl)noc2C2CC2)C3)cc1 [Compound I-48, (1R,3S,5S)-8-{4-[(cyclopropanesulfonyl)carbamoyl]phenyl}-8-azabicyclo[3.2.1]octan-3-yl 5-cyclopropyl-3-(2,6-dichlorophenyl)-1,2-oxazole-4-carboxylate]

SMILES: CCCS(=O)(=O)NC(=O)c1ccc(N2[C@@H]3CC[C@H]2C[C@@H](OC(=O)c2c(-c4c(Cl)cccc4Cl)noc2C2CC2)C3)cc1 [Compound I-45, (1R,3R,5S)-8-{4-[(propane-1-sulfonyl)carbamoyl]phenyl}-8-azabicyclo[3.2.1]octan-3-yl 5-cyclopropyl-3-(2,6-dichlorophenyl)-1,2-oxazole-4-carboxylate]
FXR pEC50 [1, 9]: 8.6 | FXR pEC50 [6]: 8.3 | % Efficacy [6]: 130%
